The values that follow come from PubChem BioAssay AID2423 (Broad Institute, 2010).

Results filed as inconclusive are left out. The source made the active and inactive calls. The rule behind the calls is not given here.

In this assay the test system is C. albicans CaCi-8 + fluconazole, Alamar Blue growth, 48 h. Briefly: resistant C. albicans growth inhibition with fluconazole, dose response, CaCi-8 strain, Alamar Blue fluorescence (AID 2423).
One may read the EC50 as the concentration needed to bring the measured effect to its halfway point. Take `CCc1nnc(NC(=O)CSc2nc(SC)ns2)s1`: the EC50 was 1490 nM. Regarding `CCCn1c(N)c(C(=O)COC(=O)c2c(C)noc2C)c(=O)n(C)c1=O`, the EC50 was > 15000 nM (inactive). Then `N#CC1=C(N)Oc2c(ccc3cccnc23)C1c1cccnc1` (stereo not given), with 8920 nM; and `CN1CCN(C(c2ccc(C(F)(F)F)cc2)c2cc(Cl)c3cccnc3c2O)CC1` (stereo not given), with 787 nM.

For `O=C(CC(=O)c1cccc([N+](=O)[O-])c1)Nc1ccccc1Cl`, the EC50 is 954 nM. In the case of `COC(=O)N/N=C/c1ccc(-c2cc(Cl)cc(Cl)c2)o1`, the EC50 is 929 nM. With `O=C1N/C(=N\N=C\c2cccnc2)SC1Cc1ccc(SC(F)F)cc1` (stereo not given), the EC50 is 3240 nM. On to `COc1ccc(C(=O)C(CN2CCCC2)c2ccccc2)cc1` (stereo not given), for which the EC50 is > 16000 nM (inactive). As to `C/C(=N\NC(=O)CSCc1ccccc1Cl)c1cc(O)ccc1O`, the EC50 was > 16000 nM (inactive).

As for `CCCc1ccc(OCC(=O)Nc2cc(S(=O)(=O)CC)ccc2O)cc1`, the EC50 is 439 nM. On to `Cc1oc2c(F)c(F)c(F)c(F)c2c1S(=O)(=O)Nc1cccc(C(F)(F)F)c1`, for which the EC50 is 1490 nM. As to `Cn1c(=O)c(C(=O)NCCc2ccccc2)c(O)c2ccccc21`, the half-maximal effective concentration (EC50) was 13000 nM. As to `Oc1c(C(Nc2nc3ccccc3s2)c2ccco2)ccc2cccnc12` (stereo not given), the EC50 is 1980 nM.

`O=S(=O)(O)c1cccc2c(N=Nc3ccc(O)c4ncccc34)cccc12`: the EC50 was > 16000 nM (inactive).

With `O=C(NC(=S)NNC(=O)[C@H]1C[C@@H]1c1ccccc1)c1cccc(F)c1`, the EC50 is 2560 nM. Next, `O=C(NC(Cc1ccccc1)C(=O)NCc1ccccn1)c1ccco1` (stereo not given): > 15000 nM (inactive); `CC(=O)Oc1ccc2c(=O)c(-c3nc4ccccc4s3)coc2c1`: 3520 nM; `COc1cc(NC(=O)c2ccccc2NS(=O)(=O)c2ccc(Cl)s2)cc(OC)c1`: > 16000 nM (inactive). Next, `CCOc1ccccc1NC(=O)c1cc(S(=O)(=O)N2CCC3(CC2)OCCO3)ccc1F`: > 16000 nM (inactive).

Regarding `COc1ccc(-c2n(CC(=O)OC3CC(C)CCC3C(C)C)c3ccccc3[n+]2C)cc1` (stereo not given), the EC50 is 365 nM. As to `Cc1ccc(NC(=O)c2ccc([N+](=O)[O-])o2)cc1C`, the EC50 was 1130 nM.

Regarding `CCOC(=O)N1CCN(Cc2ccc(O)c3ncccc23)CC1`, the EC50 was 12500 nM. `Nc1ncnc(Sc2ncccn2)c1[N+](=O)[O-]`: the concentration giving a half-maximal response (EC50) is 484 nM.

Consider `Cc1ccc(Cn2nnc3c(=O)[nH]c(C4CCN(S(=O)(=O)c5ccc(C)cc5)CC4)nc32)cc1`, for which the EC50 is > 15000 nM (inactive). With `COc1ccc(-c2cc(-c3cc(F)ccc3O)[nH]n2)cc1OC`, the concentration giving a half-maximal response (EC50) is 13900 nM.

Turning to `O=c1cc(-c2ccccc2)c2ccc(O)cc2o1`, the EC50 was 3530 nM.

Regarding `CCn1c(O)c(N=NC(=O)c2cccs2)c2ccccc21`, the EC50 was 1320 nM.

As to `CN(/C(=N/S(=O)(=O)c1cccs1)c1ccccc1)c1ccc(O)cc1`, the EC50 is > 15000 nM (inactive). As to `CCN(CC)c1ccc(/C=N/Nc2nc3ccccc3[nH]2)cc1`, the EC50 was 870 nM. As to `Oc1c(CN2CCN(c3ccc(F)cc3)CC2)cc(Cl)c2cccnc12`, the EC50 was 572 nM. Turning to `OC(COc1ccc2c(c1)OCO2)CN1CCCC1` (stereo not given), the EC50 was > 15000 nM (inactive).

As to `O=C(Nc1ccc(NC(=O)c2cccs2)cc1)c1ccc(Br)o1`, the EC50 was 9960 nM. For `CCCCC(=O)NC(c1ccco1)c1cc(Cl)c2cccnc2c1O` (stereo not given), the EC50 is 625 nM.

`CCCCn1c(=O)[nH]c(=O)c2c1nc(-c1ccc(-c3ccccc3Br)o1)n2CC`: the EC50 was > 15000 nM (inactive). Next, `CC[n+]1cc(C)ccc1/C=C/c1ccc(N(C)C)cc1`: 1410 nM.

On to `O=C(CCS(=O)(=O)c1cccc2nsnc12)N1CCN(C(=O)c2ccco2)CC1`, for which the EC50 was > 16000 nM (inactive). In the case of `CCCC(=O)NC(c1ccc(OC)cc1)c1ccc2cccnc2c1O` (stereo not given), the EC50 is 893 nM. In the case of `Oc1c(Br)cc(Br)cc1/C=N/Nc1ccc(Cl)nn1`, the EC50 was 237 nM. Then `CCCC(=O)NC(c1ccc(C)cc1)c1ccc2cccnc2c1O` (stereo not given), with 715 nM; and `C[n+]1c2n(c3ccccc31)N=C(c1ccc(-c3ccccc3)cc1)CS2`, with 1880 nM.

In the case of `CC(Oc1cc2oc(=O)c3c(c2cc1Cl)CCCC3)C(=O)NCc1ccncc1` (stereo not given), the EC50 was 6600 nM.

For the compound `CCCCC(=O)NC(c1ccc(Cl)cc1Cl)c1ccc2cccnc2c1O` (stereo not given), the EC50 is 407 nM. On to `CCC(=O)NC(c1ccc(Cl)cc1Cl)c1ccc2cccnc2c1O` (stereo not given), for which the EC50 is 714 nM. Then `O=C(Nc1nc2ccc(SC(F)F)cc2s1)c1ccc(NS(=O)(=O)c2ccc(F)c(F)c2)cc1`, with 1640 nM; and `Cc1cc(Nc2ccccc2)nc(NCc2ccccc2)n1`, with 3350 nM; and `CC[C@@H]1C=CC=CC[C@H](C)[C@@H](O)[C@@H](C)C(=O)[C@H](C)[C@@H](O)[C@H](C)C(=O)[C@H](C)[C@@H](O)[C@H](C)C=CC(=O)O[C@H]2[C@@H](C)[C@@H](CC1)O[C@@]1(CC[C@@H](C)[C@@H](C[C@H](C)O)O1)[C@@H]2C`, with 654 nM. In the case of `COc1cc(/C=C/C(=O)Nc2cccnc2)cc(OC)c1OC`, the EC50 is > 16000 nM (inactive). In the case of `O=C(Oc1c(CN2CCOCC2)cc(Cl)c2cccnc12)c1ccccc1Cl`, the EC50 is 2420 nM. Then `Cc1ccc(C)c(NC(=S)NNC(=O)c2csc(C(C)C)c2)c1`, with 1210 nM; and `CN(C(=O)CSc1nnc(-c2ccco2)o1)C1CCCCC1`, with 13200 nM. As to `Cc1cccc(Sc2nc(-c3ccccc3)ncc2C(=O)O)c1`, the EC50 was > 15000 nM (inactive). In the case of `CCCCOc1cccc(C2C(C(=O)c3ccc(C)o3)=C(O)C(=O)N2Cc2ccco2)c1` (stereo not given), the EC50 was 394 nM. Next, `O=C(COS(=O)c1ccccc1)Nc1cc(Cl)ccc1N1CCOCC1` (stereo not given): 3110 nM. For `c1ccc2c(c1)OCC(CNc1ncnc3sccc13)O2` (stereo not given), the EC50 was 4010 nM. On to `CCn1c(=O)n(CC(=O)N2CCN(c3ccccc3F)CC2)c(=O)c2ccccc21`, for which the EC50 was > 16000 nM (inactive). With `O=c1c2cc(Br)ccc2nc(-c2ccc([N+](=O)[O-])cc2)n1O`, the EC50 is 1140 nM.

Consider `Cc1cc(Br)ccc1OCC(=O)NNC(=O)C(=O)Nc1ccccc1`, for which the EC50 was 718 nM. `Cc1cc(C)cc(OCC(=O)NNC(=S)NC(=O)C2CC2)c1`: the EC50 is 646 nM. `CC(=O)Nc1ncnc2c1c(-c1ccc(Cl)cc1)nn2C(C)(C)C`: the EC50 was 1330 nM.

For `CCC(=O)N1c2ccc(S(=O)(=O)CCC(=O)N3CCn4c3nc3ccccc34)cc2CC1C` (stereo not given), the EC50 was 1120 nM. Then `O=Nc1c(O)n(Cc2cccc(C(F)(F)F)c2)c2ccccc12`, with 932 nM; and `CCn1c(C)nc2cc(C(=O)N/N=C/c3ccc(O)c(O)c3O)ccc21`, with 989 nM; and `O=C(c1cc2ccccc2cc1O)N1CCN(c2ccccc2O)CC1`, with 209 nM. As for `C/C(=N\NC(=O)c1cc2ccccc2cc1O)c1ccccn1`, the EC50 is 1450 nM. As for `CSc1ccc(/C=C/C(=O)Nc2ccccc2)cc1`, the EC50 is > 15000 nM (inactive).

In the case of `Brc1ccc(N/N=C(/N=Nc2nn[nH]n2)c2ccccc2)cc1`, the EC50 was 5600 nM. On to `O=C(NNC1=C(C(=O)C(F)(F)F)CCC1)c1ccc(Br)cc1`, for which the EC50 was 790 nM.

For `O=C(N/N=C/c1c(O)ccc2ccccc12)c1cccnc1`, the EC50 was 1430 nM. For the compound `O=C(NC1CCCCC1)C(c1ccc(Cl)cc1)N(C(=O)c1cnccn1)c1ccc2c(c1)OCO2` (stereo not given), the EC50 is 9720 nM. Regarding `CCN(CC)c1ccc(/C=C/c2ccc3ccc(OC)cc3[n+]2CC)cc1`, the EC50 was 149 nM.

As to `CCN(CC)c1ccc(/C=C/C(=O)c2cccnc2)cc1`, the EC50 is < 120 nM. On to `Cc1ccccc1C(=O)Nc1nnc(-c2ccc(F)cc2)o1`, for which the EC50 was 624 nM. `CCc1ccccc1NC(=S)N=Nc1c(O)n(C)c2ccc(S(=O)(=O)N3CCOCC3)cc12`: the EC50 was 5160 nM. `COc1cc(OC)cc(C(=O)NNC(=O)c2cc3ccccc3cc2O)c1`: the EC50 was 9180 nM. Consider `Cc1ccc(C(c2cc(Cl)c3cccnc3c2O)N2CCN(C)CC2)cc1` (stereo not given), for which the EC50 is 704 nM. In the case of `CCCOC(=O)/C(=C\c1ccc([N+](=O)[O-])o1)NC(=O)c1ccccc1`, the EC50 was > 16000 nM (inactive). Consider `COc1ccc(C2c3ccc4ccccc4c3Oc3ncn(CCN4CCOCC4)c(=N)c32)cc1` (stereo not given), for which the EC50 was 1180 nM.

For the compound `Oc1ccc(O)c2c1C1c3ccccc3C2c2ccccc21`, the EC50 was 2050 nM. In the case of `O=C(/C=C/c1ccc(F)cc1)N1CCN(c2ccccn2)CC1`, the EC50 was 800 nM. As for `Cc1oc2ccc(OC(=O)N(C)C)cc2c1C(=O)OC(C)C`, the EC50 was 4000 nM. Then `COc1ccccc1NC(=O)CN1CCN(c2ccccc2OC)CC1`, with > 16000 nM (inactive); and `COc1ccc(OC)c(Nc2nc(-c3ccc(O)c(O)c3)cs2)c1`, with 10800 nM. As to `COC(=O)c1c(-c2cccs2)csc1NC(=O)c1cccnc1`, the EC50 is 1290 nM.

In the case of `COc1cccc(/C=N/NC(=O)c2nc(-c3ccccc3)cc(-c3ccccc3)n2)c1O`, the EC50 is 1760 nM. For the compound `O=C(Nc1ccccc1N1CCOCC1)c1cc(F)cc(F)c1`, the EC50 was 2660 nM. As to `O=[N+]([O-])c1cc(Cl)c2cccnc2c1O`, the EC50 was 291 nM. Turning to `CC1(C)CC(N2CCCC2)=CC(=[N+]2CCCC2)C1`, the EC50 was 6310 nM. `CCCC(=O)NC(c1ccccc1)c1ccc2cccnc2c1O` (stereo not given): the EC50 is 783 nM.

For the compound `CCOC(=O)CNC(=O)c1sc2ncnc(N3CCc4ccccc4C3)c2c1C`, the EC50 is 4560 nM. Then `CS/C(=C\[N+](=O)[O-])Nc1ccc(Cl)cc1`, with 4020 nM; and `CCCCCCn1c(=O)c(-c2ccccc2)c(O)c2ccccc21`, with 9420 nM. Consider `CCOc1ccc(CN(C(=O)c2oc3ccccc3c2C)C2CCS(=O)(=O)C2)cc1` (stereo not given), for which the EC50 is > 16000 nM (inactive). For `C[C@H]([C@@H](N)C(=O)N[C@@H](C(=O)O)[C@@H]1O[C@H](n2ccc(=O)[nH]c2=O)[C@@H](O)[C@H]1O)[C@@H](O)c1ccc(O)cn1`, the EC50 was 3160 nM.

In the case of `COc1ccc(C(=O)NNC(=S)NC(=O)c2cccc([N+](=O)[O-])c2)cc1`, the EC50 was 1800 nM. Consider `C=CCn1c(COc2ccc(F)cc2)nnc1SCC(=O)Nc1cccc(S(N)(=O)=O)c1`, for which the EC50 was > 16000 nM (inactive).
